From patent US11001615B2, “Mutated tau protein fragment and use thereof” (ADEL INC., priority 2016, dated 2021)
Ends that are not written are not given here.

Tests used:
Assay type in all cases: in vivo
Tau-P301L dementia mice [1] = experiment: Water maze test; conditions: 5th day, platform removed; normal mice about 3, Tau-P301L about 1
Protocol: (§1) JNPL3 mice expressing Tau-P301L mutant gene were purchased from Taconic, and back-crossed with C57bl/6 mice for five generations in the experimental animal room of the Asan Institute for Life Sciences. Then, the mice were raised under a specific pathogen free (SPE) condition. For active immunization, the mice were administered, for six months starting from three months after birth at intervals of two weeks, two weeks, four weeks, four weeks, five weeks, four weeks, and one week in this order, the four modified tau protein fragments prepared in Preparation Example 1 together with keyhole limpet hemocyanin (KLH) as a carrier and an aluminum adjuvant. At this time, administration was carried out through intraperitoneal injection (IP injection). The dementia mice which were actively immunized by administration of the K280-ac fragment were designated as Tau-P301L-K280-ac.
An underwater maze test was performed to evaluate a learning and memory ability of the mice. […] Specifically, the underwater maze test took a total of 5 days. The mice were trained for 4 days in a state where a platform and a visual cue for the platform location are placed.
The learning was conducted by filling a swimming pool (1.4 m in diameter, 45 cm in depth) having a platform with water (29±0.5° C.) to a depth of about 26.5 cm, and then 1.5 L of whole milk powder was added to make water cloudy so that the mice can remember the platform with the cue only. Then, the mice were adapted to freely swim for 60 seconds and allowed to rest on the platform for 1 minute. The experiment was performed over a total of 12 times with 4 sets at three different starting positions. At the end of each test, 30 seconds of break time was given. At the end of one set, 30 to 45 minutes of break time was given.
After 4 days of learning, the test was performed on the 5th day. In the experiment for evaluation, the platform was not placed, and the number of staying in the area where the platform has been placed was measured in order to identify whether the mice visit well the platform location using the cue only. The test time was set for the mice to arrive at the location where the platform had been placed within one minute. If the mice fail to arrive at the platform location within one minute, the mice were removed out of the swimming pool.

Tau-P301L dementia mice [2] = experiment: Western blotting of brain tissues for GCP-II; conditions: brain tissue
Protocol: as §1
Glutamate carboxypeptidase-2 ([…], folate hydrolase 1) is a NAAG peptidase that degrades NAAG. There is a possibility that an increase in GCP-II is a cause for decreased NAAG. Thus, brain tissues of the Tau-P301L-K280-ac dementia mice, the P301L-K280-ac dementia mice, and the normal mice produced in Preparation Example 2 were extracted and western blotting was performed.

Tau-P301L dementia mice [3] = experiment: Y-maze experiment; conditions: Tau-P301L 50% decrease in measurement time versus normal mice
Protocol: as §1
In addition, a Y-maze experiment was performed to identify restoration of cognitive function. Specifically, A, B, and C zones were set in a Y-shaped box, and the mice were allowed to freely move for 5 minutes in a state where the B zone was blocked.

Tau-P301L dementia mice [4] = experiment: Fear conditioning experiment; conditions: actively immunized Tau-P301L dementia mice; normal mice about 150, Tau-P301L 100 or shorter
Protocol: as §1
A fear conditioning experiment was performed on the mice raised in Preparation Example 2. […]
On the day before the fear conditioning experiment, the mice were allowed to become accustomed to a training situation by being placed in the training situation for 10 minutes. […] All tests were recorded on Limelight (Actimetrics) and a computer.
On the next day, the mice were placed again in the experimental cage for 10 minutes and a baseline freezing time was measured while the beep sound was heard. […]

Tau-P301L dementia mice [5] = experiment: Western blotting of brain tissues for tau proteins (tauopathy-alleviating effect); conditions: brain tissue
Protocol: as §1
(§2) In order to identify a tauopathy-alleviating effect following administration of the K280-ac fragment, brain tissues of the Tau-P301L-K280-ac dementia mice, the P301L-K280-ac dementia mice, and the normal mice produced in Preparation Example 2 were extracted, and western blotting and immunohistochemical staining were performed.

Tau-P301L dementia mice [6] = experiment: Western blotting of cerebral cortex fractions (tau aggregation-mitigating effect); conditions: cerebral cortex fractions (soluble or insoluble)
Protocol: as §1
In order to identify a tau aggregation-mitigating effect following administration of the K280-ac fragment, western blotting was performed with the cerebral cortices of the Tau-P301L-K280-ac dementia mice, the P301L-K280-ac dementia mice, and the normal mice produced in Preparation Example 2.

Tau-P301L dementia mice [7] = experiment: Western blotting of brain tissues for synapse-related proteins; conditions: brain tissue
Protocol: as §1
In order to identify a synapse-improving effect following administration of the K280-ac fragment, brain tissues of the Tau-P301L-K280-ac dementia mice, the P301L-K280-ac dementia mice, and the normal mice produced in Preparation Example 2 were extracted, and western blotting was performed.

[8] = Antibody production after primary and secondary boosting (vaccine comparison); conditions: compared with N-terminal fragment of tau protein
Protocol: In addition, in order to identify whether the K280-ac fragment is effective as a vaccine, the N-terminal fragment and the K280-ac fragment of the tau protein having the amino acid sequence represented by SEQ ID NO: 31 were administered, and primary boosting and secondary boosting were performed. Then, these fragments were compared in terms of antibody production.

Tau-P301L dementia mice [9] = experiment: Rota-rod test; conditions: 5th day
Protocol: as §1, with “Tau-P301L-K280-ac. […]” for “Tau-P301L-K280-ac.”
Specifically, the test was intended to measure how long the mice are able to stay on a rotating rotor. The mice were trained for 4 days and a motor ability thereof was measured on the 5th day. The training was repeated three times a day, during which the time to stay on the rotor and the final rpm were measured while increasing the rpm of the rotor. On the 5th day, the experiment was conducted under the same condition except that a result was measured only once without repeating (FIGS. 14 and 15).

Tau-P301L dementia mice [10] = experiment: Immunohistochemical staining of brain tissues for tau proteins; conditions: brain tissue
Protocol: as §1, §2

## Val-Gln-Ile-Ile-Asn-Lys-Lys-Leu-Asp-Leu-Ser-Asn (VQIINK(Ac)KLDLSN) [K280-ac]
Tau-P301L dementia mice [1]
  number of arrivals: about 3 times
Tau-P301L dementia mice [2]
  expression level of GCP-II: decreased expression level of GCP-II which corresponds to that in the normal mice
Tau-P301L dementia mice [3]
  cognitive function in the Y-maze: restored
Tau-P301L dementia mice [4]
  freezing time: about 150 seconds
Tau-P301L dementia mice [5]
  acetylated tau proteins: decrease
  phosphorylated tau proteins: decrease
Tau-P301L dementia mice [5]; Tau-P301L 2-fold increase versus normal mice
  tau proteins in which lysine, the 280th amino acid, is acetylated: decreased level of tau proteins which corresponds to that in the normal mice
Tau-P301L dementia mice [6]
  acetylated tau proteins: decreased
  entire tau protein: decreased
  phosphorylated tau proteins: decreased
Tau-P301L dementia mice [7]
  expression level of synapse-related proteins such as PSD95, NMDA receptor, synaptophysin, and synapsin-1: restored to that in the normal mice
[8]
  antibody production: higher antibody production than the N-terminal fragment
Tau-P301L dementia mice [9]
  rota-rod rpm: increased to levels which correspond to those for the normal mice
  rota-rod time: increased to levels which correspond to those for the normal mice
Tau-P301L dementia mice [10]
  acetylated tau proteins: decreased
  phosphorylated tau proteins: decreased
